{
  "source": "paper PMC5572761",
  "about": "(Journal of medicinal chemistry, 2017)",
  "key": {"[1]": {"target": "rat α3β4 nAChR (Rattus norvegicus, UniProt P04757+P12392)", "sequence (P04757 26-499 limits assumed)": "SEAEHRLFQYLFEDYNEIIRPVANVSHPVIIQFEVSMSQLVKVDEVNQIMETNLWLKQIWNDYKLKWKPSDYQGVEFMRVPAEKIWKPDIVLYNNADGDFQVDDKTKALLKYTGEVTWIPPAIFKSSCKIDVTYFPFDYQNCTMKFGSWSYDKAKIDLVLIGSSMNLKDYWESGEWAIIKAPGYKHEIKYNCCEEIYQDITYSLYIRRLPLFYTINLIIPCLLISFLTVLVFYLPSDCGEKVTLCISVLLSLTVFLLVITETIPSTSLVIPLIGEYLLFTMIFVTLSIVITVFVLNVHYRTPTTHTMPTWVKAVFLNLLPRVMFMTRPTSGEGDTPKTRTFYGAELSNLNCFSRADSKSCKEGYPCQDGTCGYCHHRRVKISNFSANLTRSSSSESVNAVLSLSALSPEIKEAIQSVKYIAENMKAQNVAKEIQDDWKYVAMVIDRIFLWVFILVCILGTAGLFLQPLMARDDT", "sequence (P12392 21-495 limits assumed)": "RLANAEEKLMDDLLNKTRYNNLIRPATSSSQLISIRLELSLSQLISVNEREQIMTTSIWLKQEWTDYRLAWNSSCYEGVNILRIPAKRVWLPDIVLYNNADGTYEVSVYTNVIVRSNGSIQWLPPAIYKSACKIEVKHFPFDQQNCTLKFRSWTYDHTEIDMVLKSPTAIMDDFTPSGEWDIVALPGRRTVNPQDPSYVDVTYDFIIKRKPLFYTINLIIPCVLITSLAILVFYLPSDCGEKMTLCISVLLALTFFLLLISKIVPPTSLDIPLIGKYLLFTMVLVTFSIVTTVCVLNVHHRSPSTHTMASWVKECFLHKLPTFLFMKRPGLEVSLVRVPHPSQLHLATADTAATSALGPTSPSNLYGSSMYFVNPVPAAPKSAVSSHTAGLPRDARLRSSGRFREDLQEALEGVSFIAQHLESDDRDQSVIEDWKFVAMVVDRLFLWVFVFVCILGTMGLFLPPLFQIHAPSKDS", "type": "cell-based"}, "[2]": {"target": "rat α6/α3β4 nAChR (Rattus norvegicus, UniProt P04757+P12392+P43143)", "sequence (P04757 whole entry, looked up)": "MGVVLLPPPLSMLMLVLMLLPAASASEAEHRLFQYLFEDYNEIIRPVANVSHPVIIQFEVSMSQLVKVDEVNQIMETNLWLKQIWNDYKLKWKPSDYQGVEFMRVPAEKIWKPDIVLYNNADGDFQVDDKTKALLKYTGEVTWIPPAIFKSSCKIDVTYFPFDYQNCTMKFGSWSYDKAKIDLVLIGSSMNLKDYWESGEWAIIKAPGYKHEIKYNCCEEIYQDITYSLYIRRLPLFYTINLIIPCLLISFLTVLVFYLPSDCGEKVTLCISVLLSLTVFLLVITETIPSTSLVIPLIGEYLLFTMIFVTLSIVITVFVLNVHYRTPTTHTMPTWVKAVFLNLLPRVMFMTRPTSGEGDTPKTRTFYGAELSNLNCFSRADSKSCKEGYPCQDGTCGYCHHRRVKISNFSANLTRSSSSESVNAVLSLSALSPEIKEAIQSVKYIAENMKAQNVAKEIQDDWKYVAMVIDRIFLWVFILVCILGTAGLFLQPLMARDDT", "sequence (P12392 whole entry, looked up)": "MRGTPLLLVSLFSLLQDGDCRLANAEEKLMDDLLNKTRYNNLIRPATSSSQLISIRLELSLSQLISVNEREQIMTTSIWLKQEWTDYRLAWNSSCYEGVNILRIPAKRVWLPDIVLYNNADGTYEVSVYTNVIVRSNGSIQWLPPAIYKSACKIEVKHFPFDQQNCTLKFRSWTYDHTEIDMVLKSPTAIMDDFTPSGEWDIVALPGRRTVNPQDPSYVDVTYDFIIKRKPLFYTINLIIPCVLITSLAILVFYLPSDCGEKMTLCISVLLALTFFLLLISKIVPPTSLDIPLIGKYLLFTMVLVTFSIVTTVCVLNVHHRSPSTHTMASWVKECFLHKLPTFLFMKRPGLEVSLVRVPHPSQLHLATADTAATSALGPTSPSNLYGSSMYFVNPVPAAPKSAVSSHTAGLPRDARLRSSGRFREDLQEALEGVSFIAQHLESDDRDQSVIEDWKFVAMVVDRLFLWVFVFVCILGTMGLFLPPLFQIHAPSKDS", "sequence (P43143 whole entry, looked up)": "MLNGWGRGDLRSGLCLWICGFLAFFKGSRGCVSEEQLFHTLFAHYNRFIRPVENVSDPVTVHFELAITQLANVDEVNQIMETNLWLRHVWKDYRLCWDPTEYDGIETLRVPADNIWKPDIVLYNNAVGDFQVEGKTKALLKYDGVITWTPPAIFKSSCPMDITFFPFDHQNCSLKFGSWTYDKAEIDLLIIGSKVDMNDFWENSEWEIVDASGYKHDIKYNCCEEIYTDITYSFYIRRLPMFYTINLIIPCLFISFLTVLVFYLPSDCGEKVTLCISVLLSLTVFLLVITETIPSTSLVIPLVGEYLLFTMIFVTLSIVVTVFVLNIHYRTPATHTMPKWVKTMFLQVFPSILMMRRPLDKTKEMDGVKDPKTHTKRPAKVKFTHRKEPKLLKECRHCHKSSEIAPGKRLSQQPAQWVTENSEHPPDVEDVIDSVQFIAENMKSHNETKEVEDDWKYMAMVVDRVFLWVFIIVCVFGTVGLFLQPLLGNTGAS", "type": "cell-based"}},
  "note": "Where a SMILES comes first, the peptide text is derived from it. Bridges are numbered along the chain shown (N, C = ends).",
  "data": [
    {"smiles": "CSCC[C@@H]1NC(=O)[C@H](C)NC(=O)[C@H](CO)NC(=O)[C@@H]2CSSC[C@H](NC(=O)CN)C(=O)N[C@@H](CSSC[C@@H](C(N)=O)NC(=O)[C@H](C)NC(=O)[C@@H]3CCCN3C(=O)[C@H](CO)NC1=O)C(=O)N[C@@H](CO)C(=O)N[C@@H](Cc1c[nH]cn1)C(=O)N1CCC[C@H]1C(=O)N[C@@H](C(C)C)C(=O)N2", "note": "[Peptide 11] (H-GCCSHPVCSAMSPAC-NH2; disulfide 2-8, 3-15)", "values": [
      {"measurement": "Hill slope n^H α3β4", "setting": "[1]", "result": "1.05 (0.39–1.70)"},
      {"measurement": "α3β4 IC50 ratio relative to 1", "setting": "[1]", "result": 4.4},
      {"measurement": "Hill slope n^H α6/α3β4", "setting": "[2]", "result": "1.04 (0.77–1.32)"},
      {"measurement": "α6/α3β4 IC50 ratio relative to 1", "setting": "[2]", "result": 1.3}
    ]},
    {"smiles": "CSCC[C@@H]1NC(=O)[C@H](C)NC(=O)[C@H](CO)NC(=O)[C@@H]2CSSC[C@H](NC(=O)CN)C(=O)N[C@@H](CSSC[C@@H](C(N)=O)NC(=O)[C@H](CC(=O)O)NC(=O)[C@@H]3CCCN3C(=O)[C@H](CO)NC1=O)C(=O)N[C@@H](CO)C(=O)N[C@@H](Cc1c[nH]cn1)C(=O)N1CCC[C@H]1C(=O)N[C@@H](C(C)C)C(=O)N2", "note": "[Peptide 14] (H-GCCSHPVCSAMSPDC-NH2; disulfide 2-8, 3-15)", "values": [
      {"measurement": "Hill slope n^H α3β4", "setting": "[1]", "result": "1.33 (0.387–2.26)"},
      {"measurement": "α3β4 IC50 ratio relative to 1", "setting": "[1]", "result": 2.7},
      {"measurement": "Hill slope n^H α6/α3β4", "setting": "[2]", "result": "0.84 (0.69–0.98)"},
      {"measurement": "α6/α3β4 IC50 ratio relative to 1", "setting": "[2]", "result": 1.2}
    ]}
  ]
}
